Earlier results, collected in patent US20230263777A1, “STABLE SOLID FORMULATION OF AZILSARTAN OR PHARMACEUTICALLY ACCEPTABLE SALTS THEREOF” (PIRAMAL PHARMA LIMITED, priority 2020, published 2023).

In the case of CCOc1nc2cccc(C(=O)OCc3oc(=O)oc3C)c2n1Cc1ccc(-c2ccccc2-c2noc(=O)[nH]2)cc1 [Azilsartan kamedoxomil, (5-methyl-2-oxo-2H-1,3-dioxol-4-yl)methyl 2-ethoxy-1-({4-[2-(5-oxo-4,5-dihydro-1,2,4-oxadiazol-3-yl)phenyl]phenyl}methyl)-1H-1,3-benzodiazole-7-carboxylate], the Solubility in methanol (methanol) is listed as “freely soluble” and the Solubility in water (water) is listed as “practically insoluble”.
